Measurements: patent publication US11878013B2, “Isoquinoline derivative, preparing method thereof, and pharmaceutical composition for preventing or treating autophagy related diseases containing the same as an active ingredient” (Korea Research Institute of Chemical Technology, priority 2021, dated 2024)
Read-outs that look alike come from different tables or passages of the source.

Legend:
[1] = test system: Raw 264.7 mouse macrophages; assay: Cell viability of LPS-treated Raw 264.7 macrophages; type: cell-based
Description: (§1) Raw 264.7 mouse macrophages were aliquoted in a 96-well plate at the density of 1×10^5 cells/well and stabilized in a 37° C., 5% CO2 incubator for 24 hours. The Raw 264.7 cells were treated with the compound of Example 1 by concentration. After 1 hour, the cells were treated with 1 ug/ml of LPS and cultured for 24 hours. For the measurement of NO production, 40 mg/ml of Griess reagent was prepared and it was mixed with the culture supernatant at the same ratio. The mixture was reacted at room temperature for 15 minutes, and absorbance was measured at 540 nm. Based on the results obtained therefrom, the cell viability and NO production rate were expressed as percentages in terms of LPS.

[2] = test system: NO production; assay: NO production in LPS-treated Raw 264.7 macrophages (Griess reagent); type: cell-based, mouse; conditions: 1 ug/ml LPS, 24 hours, Raw 264.7 cells; test concentration not given
Description: In order to confirm the effect of the compound of Example 1 of the present invention on NO production in Raw 264.7 mouse macrophages in which inflammatory response was induced by LPS, an experiment was performed as follows.
as §1

[3] = test system: melanogenesis; conditions: Bioorganic & Medicinal Chemistry Letters 30 (2020) 127201; cited from earlier work
[4] = test system: zebrafish; assay: Whitening effect: melanin synthesis / melanocyte formation in zebrafish; type: in vivo; conditions: 5 μM, treated 10 hours after fertilization, read at 32 hours after fertilization; PTU 200 μM as control
Excerpt: When observing the regeneration of melanin pigment, after inhibiting the formation of melanin pigment, it can be investigated by limiting it to the melanocyte generation pathway, and it is easy to observe the melanin synthesized in the initial stage of development. Therefore, zebrafish is more useful for the study of melanin pigment changes compared to other animal models (Logan D W, Burn S F, Jackson I J. (2006) Regulation of pigmentation in zebrafish melanophores. Pigment Cell Res. 2006 June; 19(3):206-13.).
Particularly, zebrafish fertilized eggs 10 hours after fertilization were placed in a 24-well plate (10 eggs/well), and 1 ml of egg water was added to each well of the plate. The compound of Example 1 was added to each well at the concentrations of 0.1 μM and 1 μM, so that the final volume of each well was 2 ml. Then, each 24-well plate was wrapped in foil to block light, and then incubated in a 28° C. incubator for 22 hours. At 32 hours after fertilization, in order to photograph the formation of black melanocytes, the chorion of the developing embryo was peeled off using a forcep (Fine Science Tools). After anesthetizing the developing embryo with Tricaine (4 g/L), the embryo was photographed on 3% methyl cellulose. As the equipment for photographing the developing embryo, a LEICA MZ10F fluorescence microscope, a LEICA DFC425 camera, and Leica Application Suite software (v4.5) were used. In all the experimental procedures, egg water sterilized after dissolving 60 mg/L of sea salt (Sigma-Aldrich, S9883) in tertiary distilled water was used as a solution for culturing the developing embryo. As a control group, a solvent control group (0.4% DMSO) and phenylthiourea (200 μM PTU), known as a tyrosinase inhibitor, were used (FIG. 6A).
In the same manner, experiments were performed with the compound of Comparative Example 1 at the concentrations of 0.5 μM, 1 μM, and 5 μM, and the results are shown in FIG. 6B.
On the other hand, in order to confirm the ability of the compound of the present invention to inhibit the melanin synthesis of the already generated melanocytes, the following experiment was performed with juvenile fish 60 hours after fertilization. Particularly, juvenile fish 60 hours after fertilization were placed in a 24-well plate (10/well), and 1 ml of egg water was added to each well of the plate. The compound of Example 1 was added to each well at the concentrations of 10 μM and 20 μM, so that the final volume of each well was 2 ml. Then, each 24-well plate was wrapped in foil to block light, and then incubated in a 28° C. incubator for 12 hours. In order to photograph the formation of black melanocytes, the developing embryo was anesthetized with Tricaine (4 g/L), and then the embryo was photographed on 3% methyl cellulose. […]

[5] = test system: zebrafish; assay: Fatty liver inhibitory effect in tamoxifen-treated zebrafish juvenile fish (LipidGreen2 staining); type: in vivo; conditions: 5 μM tamoxifen alone, 22 hours (FIG. 8 top)
Description: In order to evaluate the inhibitory efficacy of the novel isoquinoline derivative of the present invention on fatty liver, an experiment was performed as follows using LipidGreen2 staining reagent capable of staining lipid droplets.
Particularly, the zebrafish used in this Experimental Example were juvenile fish 5 days after fertilization. Healthy juvenile fish were placed in a 24-well plate (10/well), and 1 ml of egg water was added to each well of the plate. As a negative control that could not regulate fatty liver, DMSO diluted at 0.4% was exposed to juvenile fish, and tamoxifen (Sigma-Aldrich, T5648) diluted at 5 μM was exposed to juvenile fish to control […] fatty liver. In order to investigate the fatty liver inhibitory efficacy of the compound of Example 1 of the present invention, the compound (0.5 μM, 1 μM and 5 μM) was mixed with 5 μM tamoxifen and exposed to juvenile fish (final volume of each well: 2 ml). The 24-well plate containing the compound was wrapped in foil to block light, and then incubated in a 28° C. incubator for 22 hours. The plate was washed with egg water 3 times for 5 minutes to remove the compound from each well. For fat-specific staining, LipidGreen2 diluted at 5 μM was exposed to juvenile fish for 30 minutes, and then washed 3 times with egg water for 5 minutes. To evaluate the fatty liver of zebrafish juvenile fish, the developing embryo was anesthetized with Tricaine (4 g/L), and then photographed on 3% methyl cellulose. As the equipment for photographing the developing embryo, a LEICA MZ10F fluorescence microscope, a LEICA DFC425 camera, and Leica Application Suite software (v4.5) were used. For the fluorescence wavelength, a GFP Plants filter set (Excitation 470/40 nm, Emission 525/50 nm) was used. To quantify the liver area and the degree of fat staining of juvenile fish on the image, the area and the fluorescence intensity of the liver part of each image were quantified using ImageJ 1.50i software (National Institutes of Health, USA) and converted into heatmap images.

[6] = test system: artificial skin tissue; assay: Skin toxicity test on artificial skin (MTT); type: cell-based; conditions: 5% SDS control group
Description: In order to evaluate the skin toxicity that may be induced upon skin contact of the compound of Example 1 of the present invention, the following experiment was performed using the artificial skin prepared with a structure similar to the skin of a living body.
Particularly, the experiment was performed according to OECD Guideline for the Testing of Chemicals No. 439, OECD (2010) and the method recommended by the manufacturer (Tegoscience).
First, the artificial skin cultured in agarose medium was transferred to a 12-well cell culture plate, to which culture medium was added, followed by culture in a humidified 37° C. 5% CO2 incubator for one day. The medium on the artificial skin culture surface was eliminated, and 90 μl of the compound of Example 1 of the present invention diluted with PBS was evenly applied to the skin surface, followed by incubation at room temperature for 15 minutes. The cell surface was washed twice with 10 ml of PBS, and a fresh culture medium was added, followed by incubation in a humidified 37° C. 5% CO2 incubator for 42 hours. In order to measure the viability of the skin, the artificial skin was transferred to a 12-well plate containing 2 ml of MTT solution (0.3 mg/ml), followed by culture for 3 hours. The stained artificial skin tissue was taken and transferred to a tube containing 500 μl of 0.04 N-isopropanol, and then incubated with shaking for 4 hours to decolorize. The solution was centrifuged at 13,000 rpm for 5 minutes, 100 μl of the supernatant was transferred to each well of a 96-well plate, and absorbance was measured at 570 nm.

[7] = test system: artificial corneal tissue; assay: Ocular toxicity test on artificial cornea (MTT); type: cell-based; conditions: 10% acetic acid control group
Description: In order to evaluate the ocular toxicity that may be induced upon ocular exposure of the compound of Example 1 of the present invention, the following experiment was performed using the cultured artificial cornea.
The artificial corneal tissue cultured in agarose medium was transferred to a 12-well cell culture plate, to which culture medium was added, followed by culture in a humidified 37° C. 5% CO2 incubator for one day. The medium on the artificial cornea culture surface was eliminated, and 30 μl of the compound of Example 1 of the present invention diluted with PBS was evenly applied to the cornea surface, followed by incubation at room temperature for 30 minutes. The cell surface was washed twice with 10 ml of PBS, and a fresh culture medium was added, followed by incubation in a humidified 37° C. 5% CO2 incubator for 30 minutes. In order to measure the viability of the cornea, the artificial cornea was transferred to a 12-well plate containing 2 ml of MTT solution (1 mg/ml), followed by culture for 3 hours. The stained artificial corneal tissue was taken and transferred to a tube containing 1.5 ml of isopropanol, and then incubated with shaking to decolorize. The solution was centrifuged at 13,000 rpm for 5 minutes, 100 μl of the supernatant was transferred to each well of a 96-well plate, and absorbance was measured at 570 nm.

[8] = LPS-treated Raw 264.7 cells, 24 hours, test concentration not given

Compound	Cell viability (% of control) [1, 8]	NO production (% of control) [2]	other results
[O-][S+](c1ccc(Cl)cc1)c1nccc2ccccc12 (centres unmarked) [Example 4, 1-((4-Chlorophenyl)Sulfinyl)Isoquinoline]	96 % of control	40 % of control	
[O-][S+](c1ccc(F)cc1)c1ccnc2ccccc12 (centres unmarked) [Example 2, 4-((4-Fluorophenyl)Sulfinyl)Quinoline]	100 % of control	26 % of control	
Fc1ccc(Sc2nccc3ccccc23)cc1 [Comparative Example 1, 1-((4-Fluorophenyl)Thio) Isoquinoline, reference compound]			anti-melanogenic effect [3]: anti-melanogenic effect; synthesis of melanin [4]: level similar to that of the PTU-treated group
CC/C(=C(\c1ccccc1)c1ccc(OCCN(C)C)cc1)c1ccccc1 [tamoxifen, reference compound]			liver area [5]: maintained at the liver area level of normal juvenile fish
CCCCCCCCCCCCOS(=O)(=O)[O-].[Na+] [SDS, reference compound]			MTT color development of artificial skin [6]: significant decrease of the MTT color development
[O-][S+](c1ccc(F)cc1F)c1nccc2ccccc12 (centres unmarked) [Example 3, 1-((2,4-Difluorophenyl)Sulfinyl)Isoquinoline]	103 % of control	30 % of control	
1-((4-Fluorophenyl)Thio) Isoquinoline [Comparative Example 1, reference compound]		70 % of control	Cell viability (% of control) [1]: 95 % of control
O=S(=O)(c1ccc(F)cc1)c1nccc2ccccc12 [Comparative Example 2, 1-((4-Fluorophenyl) Sulfonyl)Isoquinoline, reference compound]	73 % of control	65 % of control	
[O-][S+](c1ccc(C(F)(F)F)cc1)c1nccc2ccccc12 (centres unmarked) [Example 5, 1-((4-(Trifluoromethyl)Phenyl)Sulfinyl) Isoquinoline]	101 % of control	25 % of control	
CC(=O)O [acetic acid, reference compound]			MTT color development of artificial cornea [7]: significant decrease of the MTT color development
